# Data as given in patent US20250197399A1, “COMPOUNDS, COMPOSITIONS, AND METHODS” (Tenvie Therapeutics, Inc., priority 2022, published 2025).
# Like-named read-outs stand apart in the source and are kept apart here.
# Test system: NLRP3
# Experiment: IL-1β secretion assay in PMA-differentiated, LPS/nigericin-stimulated THP-1 cells (ELISA)
# Type: cell-based
# Conditions: 25 ng/mL LPS then nigericin, IL-1β in supernatant
# In short: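 PMA-differentiated (5 ng/mL, 40 h) THP-1 cells primed with 25 ng/mL LPS in serum-free medium for 2 h, then compound (0.5% DMSO) for 1 h before nigericin, 2 h at 37 °C. Supernatant IL-1β measured by sandwich ELISA; dose-response normalized to LPS+nigericin high and LPS-only low controls.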
# [1] = Homo sapiens, THP-1, THP-1 cells, read-out: Activity
# [2] = Homo sapiens, THP-1, THP-1 cells, read-out: Activity (IC50 class)
# [3] = THP-1 cells, read-out: Activity
# [4] = THP-1 cells, read-out: Activity (IC50 class)
IC50 [1] [nM],IC50 [2] [nM],IC50 [3] [nM],IC50 [4] [nM],SMILES
162,< 1000,,,"O=C(CN1CC2(CC2)c2c(ccc(Br)c2F)C1=O)Nc1ccc2nn[nH]c2c1 [Example 61, N-(3H-benzotriazol-5-yl)-2-(6-bromo-5-fluoro-1-oxospiro[3H-isoquinoline-4,1′-cyclopropane]-2-yl)acetamide]"
114,< 1000,,,"O=C(CN1CC2(CC2)c2cc(Br)ccc2C1=O)Nc1ncc2nc[nH]c2n1 [Example 55, 2-(6-bromo-1-oxospiro[3H-isoquinoline-4,1′-cyclopropane]-2-yl)-N-(9H-purin-2-yl)acetamide]"
16,< 1000,,,"C[C@]1(O)C[C@@H](NC(=O)CN2C[C@]3(C[C@H]3F)c3cc(C4(F)CC4)ccc3C2=O)C1 [Example 4, N-(3-cis-hydroxy-3-methylcyclobutyl)-2-[(2′R,4S)-2′-fluoro-6-(1-fluorocyclopropyl)-1-oxospiro[3H-isoquinoline-4,1′-cyclopropane]-2-yl]acetamide]"
,1000 to 10000,1590,,"O=C(CN1CC2(CC2(F)F)c2cc(Br)ccc2C1=O)Nc1ncc(Cl)cn1 (single isomer, unassigned) [Example 16, N-(5-chloropyrimidin-2-yl)-2-[6-bromo-1′,1′-difluoro-1-oxospiro[3H-isoquinoline-4,2′-cyclopropane]-2-yl]acetamide]"
,,55,< 1000,"Cc1cnc(NC(=O)CN2CC3(CC3(F)F)c3c(ccc(Br)c3F)C2=O)nc1 (single isomer, unassigned) [Example 33, N-(5-methylpyrimidin-2-yl)-2-[6-bromo-1′,1′,5-trifluoro-1-oxospiro[3H-isoquinoline-4,2′-cyclopropane]-2-yl]acetamide]"
,,232,< 1000,"O=C(CN1C[C@@]2(C[C@@H]2F)c2c(ccc(C(F)(F)F)c2F)C1=O)Nc1ncc(Cl)cn1 (single isomer, unassigned) [Example 13, 2-[(2′s,4r)-2′,5-difluoro-1-oxo-6-(trifluoromethyl)spiro[3H-isoquinoline-4,1′-cyclopropane]-2-yl]-N-(5-chloropyrimidin-2-yl)acetamide]"
,,29200,> 10000,"O=C(CN1CC2(CC2(F)F)c2c(ccc(Br)c2F)C1=O)Nc1nc2ccccn2n1 (single isomer, unassigned) [Example 30, N-([1,2,4]triazolo[1,5-a]pyridin-2-yl)-2-[6-bromo-1′,1′,5-trifluoro-1-oxospiro[3H-isoquinoline-4,2′-cyclopropane]-2-yl]acetamide]"
,,128,< 1000,"O=C(CN1CC2(CC2(F)F)c2cc(C3(F)CC3)ccc2C1=O)Nc1ncc(F)cn1 (single isomer, unassigned) [Example 27, N-(5-fluoropyrimidin-2-yl)-2-[1′,1′-difluoro-6-(1-fluorocyclopropyl)-1-oxospiro[3H-isoquinoline-4,2′-cyclopropane]-2-yl]acetamide]"
